Experimental data reported in the supplement of paper PMC10307832.

Key:
Assay in all cases: relative viability (nuclei count vs DMSO), 5 days (fraction); higher = more cells survive
[1] = compound: C1/C(=C\C2=CC=CS2)/C(=O)/C(=C/C3=CC=CS3)/C1 + COc1cc2c(Oc3ccc(NC(=O)C4(C(=O)Nc5ccc(F)cc5)CC4)cc3F)ccnc2cc1OCCCN1CCOCC1 [Foretinib] (partner 0.25 µM)
Method in brief: (§1)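 Nuclei were stained with Hoechst during a one-step fixation (final 0.05% Triton X-100, 1% formaldehyde, 1 ug/ml Hoechst) carried out 5 days after dosing, then counted on 4× images. The cells, lung cancer lines in 1536-well plates, had been dosed by pin tool the day after seeding with one drug alone or a fixed anchor-drug dose plus five library-drug doses (not always all listed) in √10 steps. Relative viability is the nuclei count in treated wells divided by that in vehicle wells, and each value is the median of duplicate plates.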

Lestaurtinib + Foretinib = compound: C[C@]12O[C@H](C[C@]1(O)CO)n1c3ccccc3c3c4c(c5c6ccccc6n2c5c31)CNC4=O [Lestaurtinib] + COc1cc2c(Oc3ccc(NC(=O)C4(C(=O)Nc5ccc(F)cc5)CC4)cc3F)ccnc2cc1OCCCN1CCOCC1 [Foretinib] (partner 0.25 µM)
Method in brief: as §1

[2] = compound: C1/C(=C\C2=CC=CS2)/C(=O)/C(=C/C3=CC=CS3)/C1 + Cc1cc(Nc2cc(N3CCN(C)CC3)nc(Sc3ccc(NC(=O)C4CC4)cc3)n2)n[nH]1 [Tozasertib] (partner 0.1 µM)
Method in brief: as §1

[3] = compound: C1/C(=C\C2=CC=CS2)/C(=O)/C(=C/C3=CC=CS3)/C1 + CC(=O)Nc1cccc(-n2c(=O)n(C3CC3)c(=O)c3c(Nc4ccc(I)cc4F)n(C)c(=O)c(C)c32)c1 [Trametinib] (partner 0.02 µM)
Method in brief: as §1

| Cell Line | relative viability ([1]; first compound 0.2 µM) | relative viability ([1]; first compound 0.6325 µM) | relative viability ([1]; first compound 2 µM) | relative viability ([1]; first compound 6.325 µM) | relative viability ([1]; first compound 20 µM) | relative viability (Lestaurtinib + Foretinib; first compound 0.005 µM) | relative viability (Lestaurtinib + Foretinib; first compound 0.01581 µM) | relative viability (Lestaurtinib + Foretinib; first compound 0.05 µM) | relative viability (Lestaurtinib + Foretinib; first compound 0.1581 µM) | relative viability (Lestaurtinib + Foretinib; first compound 0.5 µM) | relative viability ([2]; first compound 0.2 µM) | relative viability ([2]; first compound 0.6325 µM) | relative viability ([2]; first compound 2 µM) | relative viability ([2]; first compound 6.325 µM) | relative viability ([2]; first compound 20 µM) | relative viability ([3]; first compound 0.2 µM) | relative viability ([3]; first compound 0.6325 µM) | relative viability ([3]; first compound 2 µM) | relative viability ([3]; first compound 6.325 µM) | relative viability ([3]; first compound 20 µM) |
| --- | --- | --- | --- | --- | --- | --- | --- | --- | --- | --- | --- | --- | --- | --- | --- | --- | --- | --- | --- | --- |
| NCI-H1437 | 1.31 | 1.3 | 1.25 | 1.1 | 1.23 | 1.35 | 1.4 | 1.29 | 1.17 | 1.07 | 0.408 | 0.413 | 0.452 | 0.273 | 0.407 | 0.51 | 0.52 | 0.442 | 0.461 | 0.428 |
| SK-MES-1 | 0.949 | 1 | 0.925 | 0.701 | 0.848 | 0.906 | 0.866 | 0.599 | 0.33 | 0.334 | 0.922 | 0.977 | 0.942 | 0.818 | 0.831 | 0.601 | 0.58 | 0.549 | 0.502 | 0.568 |
| NCI-H2405 | 1.11 | 1.03 | 1.17 | 0.948 | 1.12 | 1.11 | 1.08 | 1.05 | 0.805 | 0.384 | 0.775 | 0.774 | 0.862 | 0.72 | 0.76 | 0.688 | 0.578 | 0.603 | 0.585 | 0.699 |
| NCI-H2023 | – | 0.949 | 0.998 | 0.82 | 1.05 | 1.02 | 0.758 | 0.843 | 1.01 | 0.164 | 0.428 | 0.507 | 0.397 | 0.346 | 0.259 | 0.629 | 0.546 | 0.684 | 0.511 | 0.555 |
| NCI-H838 | 0.998 | 1.1 | 1.04 | 0.812 | 0.968 | 1.12 | 1.04 | 0.869 | 0.519 | 0.26 | 0.295 | 0.264 | 0.321 | 0.216 | 0.231 | 0.491 | 0.516 | 0.488 | 0.448 | 0.44 |
| NCI-H661 | 1.05 | 1.02 | 1.02 | 0.993 | 1 | 1.02 | 0.935 | 1.02 | 0.933 | 0.421 | 0.324 | 0.361 | 0.374 | 0.308 | 0.36 | 0.593 | 0.602 | 0.585 | 0.523 | 0.549 |
| NCI-H1734 | 0.805 | 0.939 | 0.92 | 0.797 | 0.818 | 0.891 | 0.951 | 0.705 | 0.383 | 0.179 | 0.282 | 0.293 | 0.263 | 0.167 | 0.287 | 0.825 | 0.575 | 0.658 | 0.578 | 0.626 |
| NCI-H1650 | 1.15 | 1.16 | 1.41 | 1.12 | 1.18 | 1.03 | 1.24 | 1.37 | 1.26 | 0.694 | 0.492 | 0.445 | 0.395 | 0.435 | 0.343 | 0.619 | 0.679 | 0.548 | 0.627 | 0.516 |
| NCI-H596 | 0.895 | 0.847 | 0.872 | 0.753 | 0.905 | 0.724 | 0.946 | 0.82 | 1.1 | 0.671 | 0.726 | 0.865 | 1.11 | 0.855 | 0.995 | 0.807 | 0.763 | 0.871 | 0.699 | 0.727 |
| NCI-H1944 | 0.918 | 0.828 | 0.89 | 0.844 | 0.859 | 0.909 | 0.848 | 0.698 | 0.652 | 0.366 | 0.282 | 0.248 | 0.259 | 0.241 | 0.236 | 0.393 | 0.421 | 0.424 | – | 0.388 |
| LK-2 | 1.57 | 1.51 | 1.11 | 1.18 | 1.41 | 1.16 | 1.19 | 0.683 | 0.774 | 0.309 | 0.157 | 0.155 | 0.196 | 0.168 | 0.175 | 0.643 | 0.968 | 0.809 | 0.712 | 0.707 |
| HCC-15 | 1.09 | 0.994 | 1.03 | 0.917 | 1.06 | 1.11 | 1.13 | 0.989 | 0.744 | 0.139 | 0.422 | 0.497 | 0.367 | 0.397 | 0.357 | 0.397 | 0.376 | 0.417 | 0.376 | 0.374 |
| NCI-H727 | 0.907 | 0.802 | 1.1 | 0.815 | 0.96 | 1.05 | 0.991 | 1.05 | 0.756 | 0.33 | 0.725 | 0.619 | 0.627 | 0.478 | 0.536 | 0.379 | 0.414 | 0.373 | – | 0.374 |
| HOP-62 | 1.08 | 1.07 | 1.07 | 0.922 | 1.09 | 1.15 | 1.33 | 1.08 | 1.06 | 0.343 | 0.368 | 0.39 | 0.348 | 0.302 | 0.39 | 0.346 | 0.457 | 0.377 | 0.381 | 0.391 |
| NCI-H3122 | 1.01 | 0.934 | 1 | 0.81 | 0.846 | 1.06 | 0.984 | 1.01 | 1.03 | 0.793 | 0.393 | 0.498 | 0.396 | 0.391 | 0.442 | 0.25 | 0.222 | 0.226 | 0.233 | 0.251 |
| NCI-H1395 | 0.992 | 0.945 | 1.18 | 0.861 | 1.01 | 1.01 | 0.911 | 0.861 | 0.824 | 0.479 | 0.767 | 0.879 | 0.91 | 0.686 | 0.754 | 1.13 | 0.996 | 1.08 | 0.88 | 1.09 |
